Test results taken from ChEMBL document CHEMBL4627395, “Cytotoxic Heptaketides from the Endolichenic Fungus Ulospora bilgramii” (J Nat Prod, 2020).
Where a name gives a salt, the structure may show the parent alone.

Legend:
Assay type in all cases: functional, cell-based
KB = assay: Cytotoxicity against human KB cells incubated for 48 hrs by MTT assay
A549 = assay: Cytotoxicity against human A549 cells incubated for 48 hrs by MTT assay; settings: A549, 48 h
MCF7 = assay: Cytotoxicity against human MCF7 cells incubated for 48 hrs by MTT assay; settings: MCF7, 48 h

COc1cc(O)c2c(c1)[C@H](O)[C@@H]1C[C@H](C)OC[C@H]1C2=O was tested, and the IC50 (KB) was > 40 µM, the IC50 (A549) was > 40 µM and the IC50 (MCF7) was > 40 µM.

With COc1cc(O)c2c(c1)C(=O)c1cc(C)ncc1C2=O the IC50 (KB) was > 40 µM, the IC50 (A549) was > 40 µM and the IC50 (MCF7) was > 40 µM.

Compound COc1cccc2c1C(=O)c1c(O)c3c(c(O)c1C2=O)C[C@@](O)(C(=O)CO)C[C@@H]3O[C@H]1C[C@H](N)[C@H](O)[C@H](C)O1 [DOXORUBICIN HYDROCHLORIDE] has an IC50 (KB) of 2.2 µM, an IC50 (A549) of 5 µM and an IC50 (MCF7) of 2.5 µM.

For COc1cc(O)c2c(c1)C(=O)c1c(coc1[C@H](C)O)C2=O, the IC50 (KB) was > 40 µM, the IC50 (A549) was > 40 µM and the IC50 (MCF7) was > 40 µM.

Work on COc1cc(O)c2c(c1)C(=O)C1=C(C2=O)[C@@](C)(OC)OCC1 yielded an IC50 (KB) of 16.6 µM, an IC50 (A549) of 28.2 µM and an IC50 (MCF7) of 11.6 µM.
